# Assay results taken from PubChem BioAssay AID1963439 (Molecular Pharmacology Branch, DTP, NCI, 2024).
# Tested on: NCI-H196 complex spheroids with HUVEC/MSC, growth % T/C
# Assay: Anticancer human tumor NCI-H196 cell line growth inhibition [Asc];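 also: spheroids exposed to compound for 7 days before measurement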;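 as to viability, T/C: 100% = DMSO vehicle control wells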
# Details: for IC50: curve of first compound; for viability, T/C: stronger effect = lower value
# In short: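 Tumor cells were grown as complex spheroids with human endothelial cells (HUVEC) and human mesenchymal stem cells as stroma. Agents were tested alone and in combination, in half-log steps down from the clinical Cmax, or from 10 microM where Cmax was unknown.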
# [1] = second compound 0.03 µM, first compound 0.0316 µM
# [2] = second compound 0.03 µM, first compound 0.1 µM
# [3] = second compound 0.03 µM, first compound 0.316 µM
# [4] = second compound 0.03 µM, first compound 1 µM
# [5] = second compound 0.0949 µM, first compound 0.0316 µM
# [6] = second compound 0.0949 µM, first compound 0.1 µM
# [7] = second compound 0.0949 µM, first compound 0.316 µM
# [8] = second compound 0.0949 µM, first compound 1 µM
# [9] = second compound 0.3 µM, first compound 0.0316 µM
# [10] = second compound 0.3 µM, first compound 0.1 µM
# [11] = second compound 0.3 µM, first compound 0.316 µM
# [12] = second compound 0.3 µM, first compound 1 µM
# [13] = second compound 0.949 µM, first compound 0.0316 µM
# [14] = second compound 0.949 µM, first compound 0.1 µM
# [15] = second compound 0.949 µM, first compound 0.316 µM
# [16] = second compound 0.949 µM, first compound 1 µM
# [17] = second compound 3 µM, first compound 0.0316 µM
# [18] = second compound 3 µM, first compound 0.1 µM
# [19] = second compound 3 µM, first compound 0.316 µM
# [20] = second compound 3 µM, first compound 1 µM
# [21] = second compound 0.03 µM, first compound 0.00316 µM
# [22] = second compound 0.03 µM, first compound 0.01 µM
# [23] = second compound 0.0949 µM, first compound 0.00316 µM
# [24] = second compound 0.0949 µM, first compound 0.01 µM
# [25] = second compound 0.3 µM, first compound 0.00316 µM
# [26] = second compound 0.3 µM, first compound 0.01 µM
# [27] = second compound 0.949 µM, first compound 0.00316 µM
# [28] = second compound 0.949 µM, first compound 0.01 µM
# [29] = second compound 3 µM, first compound 0.00316 µM
# [30] = second compound 3 µM, first compound 0.01 µM
compound,measurement,setting,value
CNC(C)C(=O)NC1CN(S(=O)(=O)c2cccc(S(=O)(=O)N3CCC4CCC(C(=O)NC(c5ccccc5)c5ccccc5)N4C(=O)C(NC(=O)C(C)NC)C3)c2)CCC2CCC(C(=O)NC(c3ccccc3)c3ccccc3)N2C1=O (stereo not given) + Cc1c(S(C)(=O)=O)c(-c2cc(F)cc(N3CCN(c4ccc(NS(=O)(=O)c5ccc(NC(CCN6CCC(C(=O)OCCCP(=O)(O)O)CC6)CSc6ccccc6)c(S(=O)(=O)C(F)(F)F)c5)cc4)CC3)c2)c(-c2ccc(Cl)cc2)n1C(C)C,IC50,second compound 0.1 µM,< 3.16 nM
same,IC50,second compound 0.316 µM,< 3.16 nM
same,IC50,second compound 1 µM,< 3.16 nM
same,IC50,second compound 3.16 µM,< 3.16 nM
same,IC50,second compound 10 µM,< 3.16 nM
same,"viability, T/C","second compound 0.1 µM, first compound 0.00316 µM",34.8%
same,"viability, T/C","second compound 0.1 µM, first compound 0.01 µM",14.2%
same,"viability, T/C","second compound 0.1 µM, first compound 0.0316 µM",3.61%
same,"viability, T/C","second compound 0.1 µM, first compound 0.1 µM",1.15%
same,"viability, T/C","second compound 0.1 µM, first compound 0.316 µM",1.37%
same,"viability, T/C","second compound 0.1 µM, first compound 1 µM",1.37%
same,"viability, T/C","second compound 0.316 µM, first compound 0.00316 µM",34.8%
same,"viability, T/C","second compound 0.316 µM, first compound 0.01 µM",13.5%
same,"viability, T/C","second compound 0.316 µM, first compound 0.0316 µM",2.75%
same,"viability, T/C","second compound 0.316 µM, first compound 0.1 µM",2.2%
same,"viability, T/C","second compound 0.316 µM, first compound 0.316 µM",0.94%
same,"viability, T/C","second compound 0.316 µM, first compound 1 µM",0.56%
same,"viability, T/C","second compound 1 µM, first compound 0.00316 µM",32.3%
same,"viability, T/C","second compound 1 µM, first compound 0.01 µM",10.1%
same,"viability, T/C","second compound 1 µM, first compound 0.0316 µM",3.17%
same,"viability, T/C","second compound 1 µM, first compound 0.1 µM",2.28%
same,"viability, T/C","second compound 1 µM, first compound 0.316 µM",1.22%
same,"viability, T/C","second compound 1 µM, first compound 1 µM",0.43%
same,"viability, T/C","second compound 3.16 µM, first compound 0.00316 µM",31.1%
same,"viability, T/C","second compound 3.16 µM, first compound 0.01 µM",11%
same,"viability, T/C","second compound 3.16 µM, first compound 0.0316 µM",3.34%
same,"viability, T/C","second compound 3.16 µM, first compound 0.1 µM",0.68%
same,"viability, T/C","second compound 3.16 µM, first compound 0.316 µM",0.36%
same,"viability, T/C","second compound 3.16 µM, first compound 1 µM",0.39%
same,"viability, T/C","second compound 10 µM, first compound 0.00316 µM",28.9%
same,"viability, T/C","second compound 10 µM, first compound 0.01 µM",6.64%
same,"viability, T/C","second compound 10 µM, first compound 0.0316 µM",2.27%
same,"viability, T/C","second compound 10 µM, first compound 0.1 µM",0.74%
same,"viability, T/C","second compound 10 µM, first compound 0.316 µM",0.42%
same,"viability, T/C","second compound 10 µM, first compound 1 µM",0.45%
O=C(c1cc(Cc2n[nH]c(=O)c3ccccc23)ccc1F)N1CCN(C(=O)C2CC2)CC1 + CCN1C(C(=O)NC23CCC(C(=O)O)(CC2)CC3)C(c2cccc(Cl)c2F)C2(C(=O)Nc3cc(Cl)ccc32)C12CCCCC2,IC50,second compound 0.03 µM,> 10000 nM
same,IC50,second compound 0.0949 µM,> 10000 nM
same,IC50,second compound 0.3 µM,> 10000 nM
same,IC50,second compound 0.949 µM,> 10000 nM
same,IC50,second compound 3 µM,> 10000 nM
same,"viability, T/C",[1],102%
same,"viability, T/C",[2],116%
same,"viability, T/C",[3],95.9%
same,"viability, T/C",[4],100%
same,"viability, T/C","second compound 0.03 µM, first compound 3.16 µM",104%
same,"viability, T/C","second compound 0.03 µM, first compound 10 µM",97.9%
same,"viability, T/C",[5],108%
same,"viability, T/C",[6],105%
same,"viability, T/C",[7],110%
same,"viability, T/C",[8],100%
same,"viability, T/C","second compound 0.0949 µM, first compound 3.16 µM",102%
same,"viability, T/C","second compound 0.0949 µM, first compound 10 µM",104%
same,"viability, T/C",[9],106%
same,"viability, T/C",[10],107%
same,"viability, T/C",[11],123%
same,"viability, T/C",[12],116%
same,"viability, T/C","second compound 0.3 µM, first compound 3.16 µM",107%
same,"viability, T/C","second compound 0.3 µM, first compound 10 µM",100%
same,"viability, T/C",[13],120%
same,"viability, T/C",[14],124%
same,"viability, T/C",[15],121%
same,"viability, T/C",[16],121%
same,"viability, T/C","second compound 0.949 µM, first compound 3.16 µM",121%
same,"viability, T/C","second compound 0.949 µM, first compound 10 µM",105%
same,"viability, T/C",[17],116%
same,"viability, T/C",[18],120%
same,"viability, T/C",[19],108%
same,"viability, T/C",[20],110%
same,"viability, T/C","second compound 3 µM, first compound 3.16 µM",128%
same,"viability, T/C","second compound 3 µM, first compound 10 µM",110%
O=C(c1ccc(F)c(F)c1Nc1ccc(I)cc1F)N1CC(O)([C@@H]2CCCCN2)C1 + CCN1C(C(=O)NC23CCC(C(=O)O)(CC2)CC3)C(c2cccc(Cl)c2F)C2(C(=O)Nc3cc(Cl)ccc32)C12CCCCC2,IC50,second compound 0.03 µM,> 1000 nM
same,IC50,second compound 0.0949 µM,> 1000 nM
same,IC50,second compound 0.3 µM,> 1000 nM
same,IC50,second compound 0.949 µM,> 1000 nM
same,IC50,second compound 3 µM,> 1000 nM
same,"viability, T/C",[21],107%
same,"viability, T/C",[22],110%
same,"viability, T/C",[1],101%
same,"viability, T/C",[2],111%
same,"viability, T/C",[3],123%
same,"viability, T/C",[4],157%
same,"viability, T/C",[23],105%
same,"viability, T/C",[24],121%
same,"viability, T/C",[5],108%
same,"viability, T/C",[6],112%
same,"viability, T/C",[7],127%
same,"viability, T/C",[8],131%
same,"viability, T/C",[25],104%
same,"viability, T/C",[26],114%
same,"viability, T/C",[9],123%
same,"viability, T/C",[10],115%
same,"viability, T/C",[11],125%
same,"viability, T/C",[12],122%
same,"viability, T/C",[27],115%
same,"viability, T/C",[28],120%
same,"viability, T/C",[13],125%
same,"viability, T/C",[14],120%
same,"viability, T/C",[15],145%
same,"viability, T/C",[16],144%
same,"viability, T/C",[29],124%
same,"viability, T/C",[30],123%
same,"viability, T/C",[17],126%
same,"viability, T/C",[18],121%
same,"viability, T/C",[19],136%
same,"viability, T/C",[20],154%
COc1c(OCCCN2CCOCC2)ccc2c3n(c(=NC(=O)c4cnc(N)nc4)nc12)CCN3 + CCN1C(C(=O)NC23CCC(C(=O)O)(CC2)CC3)C(c2cccc(Cl)c2F)C2(C(=O)Nc3cc(Cl)ccc32)C12CCCCC2,IC50,second compound 0.03 µM,> 1000 nM
same,IC50,second compound 0.0949 µM,> 1000 nM
same,IC50,second compound 0.3 µM,> 1000 nM
same,IC50,second compound 0.949 µM,> 1000 nM
same,IC50,second compound 3 µM,> 1000 nM
same,"viability, T/C",[21],101%
same,"viability, T/C",[22],106%
same,"viability, T/C",[1],91%
same,"viability, T/C",[2],77.1%
same,"viability, T/C",[3],68.8%
same,"viability, T/C",[4],52.1%
same,"viability, T/C",[23],117%
same,"viability, T/C",[24],99.6%
same,"viability, T/C",[5],98.5%
same,"viability, T/C",[6],82.8%
same,"viability, T/C",[7],72.7%
same,"viability, T/C",[8],52.2%
same,"viability, T/C",[25],110%
same,"viability, T/C",[26],102%
same,"viability, T/C",[9],106%
same,"viability, T/C",[10],83.1%
same,"viability, T/C",[11],73.3%
same,"viability, T/C",[12],59.7%
same,"viability, T/C",[27],103%
same,"viability, T/C",[28],109%
same,"viability, T/C",[13],94.9%
same,"viability, T/C",[14],85.7%
same,"viability, T/C",[15],66.9%
same,"viability, T/C",[16],57.3%
same,"viability, T/C",[29],113%
same,"viability, T/C",[30],106%
same,"viability, T/C",[17],105%
same,"viability, T/C",[18],81.2%
same,"viability, T/C",[19],73.1%
same,"viability, T/C",[20],54.2%
